Tests used:
[1] = target: T1, Carbonic anhydrase 9 (Homo sapiens, UniProt Q16790); test: Inhibition of human carbonic anhydrase 9 assessed as inhibitory constant incubated for 15 mins by phenol red dye based stopped flow assay
[2] = target: Carbonic anhydrase 2 (Homo sapiens, UniProt P00918); test: Inhibition of human carbonic anhydrase 2 assessed as inhibitory constant incubated for 15 mins by phenol red dye based stopped flow assay
[3] = target: T2, Carbonic anhydrase 12 (Homo sapiens, UniProt O43570); conditions: at 0.001 µM
T2 sequence (O43570 whole entry): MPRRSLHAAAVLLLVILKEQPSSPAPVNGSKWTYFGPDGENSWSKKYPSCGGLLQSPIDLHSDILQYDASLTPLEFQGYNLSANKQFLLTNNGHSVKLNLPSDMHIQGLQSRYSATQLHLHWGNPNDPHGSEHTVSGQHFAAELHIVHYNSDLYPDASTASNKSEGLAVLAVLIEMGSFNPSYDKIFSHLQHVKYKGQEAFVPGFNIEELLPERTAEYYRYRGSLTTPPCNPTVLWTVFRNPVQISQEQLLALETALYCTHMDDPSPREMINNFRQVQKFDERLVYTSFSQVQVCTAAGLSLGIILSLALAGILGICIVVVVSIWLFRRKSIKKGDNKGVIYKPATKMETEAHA

[4] = target: T1, Carbonic anhydrase 9; conditions: at 0.01 µM
Description: Inhibition of human carbonic anhydrase 9 assessed as reduction in CO2 hydration at 10^-8 M incubated for 15 mins by phenol red dye based stopped flow assay relative to control (Rvb = 0 %)

[5] = target: T1, Carbonic anhydrase 9; conditions: at 0.1 µM
Description: Inhibition of human carbonic anhydrase 9 assessed as reduction in CO2 hydration at 10^-7 M incubated for 15 mins by phenol red dye based stopped flow assay relative to control (Rvb = 0 %)

[6] = target: T2, Carbonic anhydrase 12; conditions: at 0.1 µM
Description: Inhibition of human carbonic anhydrase 12 assessed as reduction in CO2 hydration at 10^-7 M incubated for 15 mins by phenol red dye based stopped flow assay relative to control (Rvb = 0 %)

[7] = target: T2, Carbonic anhydrase 12; test: Inhibition of human carbonic anhydrase 12 assessed as inhibitory constant incubated for 15 mins by phenol red dye based stopped flow assay
[8] = target: T1, Carbonic anhydrase 9; conditions: at 1 µM
Description: Inhibition of human carbonic anhydrase 9 assessed as reduction in CO2 hydration at 10^-6 M incubated for 15 mins by phenol red dye based stopped flow assay relative to control (Rvb = 0 %)

[9] = target: Carbonic anhydrase 1 (Homo sapiens, UniProt P00915); test: Inhibition of human carbonic anhydrase 1 assessed as inhibitory constant incubated for 15 mins by phenol red dye based stopped flow assay
Chain of Carbonic anhydrase 1 (P00915 whole entry): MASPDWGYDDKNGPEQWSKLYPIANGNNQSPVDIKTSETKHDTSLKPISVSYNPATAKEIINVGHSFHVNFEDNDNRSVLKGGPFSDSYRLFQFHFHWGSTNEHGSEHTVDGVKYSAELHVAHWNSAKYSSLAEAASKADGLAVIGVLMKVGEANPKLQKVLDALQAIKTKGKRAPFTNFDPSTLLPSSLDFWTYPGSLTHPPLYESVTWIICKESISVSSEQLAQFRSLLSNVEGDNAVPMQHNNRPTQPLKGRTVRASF

[10] = target: T2, Carbonic anhydrase 12; conditions: at 1 µM
Description: Inhibition of human carbonic anhydrase 12 assessed as reduction in CO2 hydration at 10^-6 M incubated for 15 mins by phenol red dye based stopped flow assay relative to control (Rvb = 0 %)

[11] = target: T1, Carbonic anhydrase 9; conditions: at 0.001 µM
Description: Inhibition of human carbonic anhydrase 9 assessed as reduction in CO2 hydration at 10^-9 M incubated for 15 mins by phenol red dye based stopped flow assay relative to control (Rvb = 0 %)

[12] = target: T2, Carbonic anhydrase 12; conditions: at 0.01 µM

| SMILES | Ki [1] [nM] | Ki [2] [nM] | Ki [7] [nM] | Ki [9] [nM] | also measured |
| --- | --- | --- | --- | --- | --- |
| CC(=O)N1N=C(c2ccccc2)CC1c1ccc(OS(N)(=O)=O)cc1 (configuration not stated) | 45.1 | 44.8 | 10.6 | 645 | inhibition [3]: 15%; inhibition [4]: 42%; inhibition [5]: 69%; inhibition [6]: 77%; inhibition [8]: 81%; inhibition [10]: 89%; inhibition [11]: 16%; inhibition [12]: 49% |
| CC(=O)N1N=C(c2cccc(OS(N)(=O)=O)c2)CC1c1ccc(C)cc1 (configuration not stated) | 29.4 | 71.2 | 55.9 | 558 | – |
| CC(=O)N1N=C(c2ccccc2)CC1c1cccc(OS(N)(=O)=O)c1 (configuration not stated) | 13.1 | 16.5 | 22.9 | 755 | – |
| COc1ccc(C2CC(c3ccc(OS(N)(=O)=O)cc3)=NN2C(C)=O)cc1 (configuration not stated) | 25 | 5.3 | 42.6 | 1610 | – |
| CC(=O)N1N=C(c2ccc(Cl)cc2)CC1c1ccc(OS(N)(=O)=O)cc1 (configuration not stated) | 8.3 | 19.5 | 29.5 | 970 | – |
| CC(=O)N1N=C(c2cccc(OS(N)(=O)=O)c2)CC1c1ccc(Cl)cc1 (configuration not stated) | 6.9 | 14.7 | 9.3 | 438 | – |
| CC(=O)N1N=C(c2ccc(Cl)cc2)CC1c1cccc(OS(N)(=O)=O)c1 (configuration not stated) | 0.81 | 32.7 | 22.3 | 2140 | – |
| CC(=O)N1N=C(c2ccc([N+](=O)[O-])cc2)CC1c1ccc(OS(N)(=O)=O)cc1 (configuration not stated) | 15 | 9.5 | 0.88 | 3820 | – |
| CC(=O)N1N=C(c2cccc(OS(N)(=O)=O)c2)CC1c1cc(Cl)ccc1Cl (configuration not stated) | 58.9 | 92.6 | 34.2 | 2040 | – |
| CC(=O)N1N=C(c2ccc(Cl)cc2Cl)CC1c1ccc(OS(N)(=O)=O)cc1 (configuration not stated) | 49.9 | 5.3 | 42 | 3520 | – |
| CC(=O)N1N=C(c2ccc(OS(N)(=O)=O)cc2)CC1c1ccc(Cl)cc1 (configuration not stated) | 6.9 | 6 | 27.3 | 1140 | – |
| CC(=O)N1N=C(c2ccc(OS(N)(=O)=O)cc2)CC1c1ccccc1 (configuration not stated) | 34.1 | 8.9 | – | 1310 | – |
| CC(=O)N1N=C(c2cccc(OS(N)(=O)=O)c2)CC1c1ccc([N+](=O)[O-])cc1 (configuration not stated) | 10.1 | 134 | 20.8 | 1460 | – |
| CC(=O)N1N=C(c2cccc(OS(N)(=O)=O)c2)CC1c1c(Cl)cccc1Cl (configuration not stated) | 63.6 | 223 | 61.3 | 1780 | – |
| CC(=O)N1N=C(c2ccc(OS(N)(=O)=O)cc2)CC1c1ccc(C)cc1 (configuration not stated) | 7.1 | 6.5 | 22.3 | 817 | – |
| CC(=O)N1N=C(c2ccc(OS(N)(=O)=O)cc2)CC1c1ccc(C(F)(F)F)cc1 (configuration not stated) | 29.3 | 0.83 | – | 2740 | – |
| CC(=O)N1N=C(c2cccc(OS(N)(=O)=O)c2)CC1c1ccc(F)cc1 (configuration not stated) | 8.4 | 38 | 13.5 | 67.4 | – |
| CC(=O)N1N=C(c2ccc(Cl)c(Cl)c2)CC1c1ccc(OS(N)(=O)=O)cc1 (configuration not stated) | 7.7 | 27.6 | 12.9 | 2900 | – |
| CC(=O)N1N=C(c2ccc(F)cc2)CC1c1cccc(OS(N)(=O)=O)c1 (configuration not stated) | 15.8 | 6.5 | – | 5230 | – |
| CC(=O)N1N=C(c2cccc(OS(N)(=O)=O)c2)CC1c1ccccc1Cl (configuration not stated) | 43.6 | 90.1 | 74.4 | 940 | – |

| SMILES | Ki [1] [nM] | Ki [2] [nM] | Ki [7] [nM] | Ki [9] [nM] | also measured |
| --- | --- | --- | --- | --- | --- |
| CC(=O)N1N=C(c2ccc(OS(N)(=O)=O)cc2)CC1c1cccc2ccccc12 (configuration not stated) | 49 | 27.5 | 56.4 | 3300 | – |
| CC(=O)N1N=C(c2ccc(OS(N)(=O)=O)cc2)CC1c1ccc(F)cc1 (configuration not stated) | 5.9 | 1.5 | 11.8 | 666 | – |
| CC(=O)N1N=C(c2cccc(OS(N)(=O)=O)c2)CC1c1cccc2ccccc12 (configuration not stated) | 51.1 | 216 | 463 | 2240 | – |
| CC(=O)N1N=C(c2ccc([N+](=O)[O-])cc2)CC1c1cccc(OS(N)(=O)=O)c1 (configuration not stated) | 9.4 | 22.9 | 20.5 | 2550 | – |
| COc1ccc(C2CC(c3cccc(OS(N)(=O)=O)c3)=NN2C(C)=O)cc1 (configuration not stated) | 8.7 | 52.4 | 48.6 | 172 | – |
| CC(=O)N1N=C(c2ccc(OS(N)(=O)=O)cc2)CC1c1cc(Cl)ccc1Cl (configuration not stated) | 25.5 | 12.4 | – | 4750 | – |
| CC(=O)N1N=C(c2cccc(OS(N)(=O)=O)c2)CC1c1ccc(Cl)cc1Cl (configuration not stated) | 13.8 | 195 | 33.8 | 1410 | – |
| CC(=O)N1N=C(c2ccc(Cl)cc2Cl)CC1c1cccc(OS(N)(=O)=O)c1 (configuration not stated) | 48.7 | 12 | 30.8 | 6940 | – |
| CC(=O)N1N=C(c2ccc(OS(N)(=O)=O)cc2)CC1c1ccc(Cl)cc1Cl (configuration not stated) | 11.2 | 9.3 | 26.2 | 3750 | – |
| CC(=O)N1N=C(c2ccc(Cl)c(Cl)c2)CC1c1cccc(OS(N)(=O)=O)c1 (configuration not stated) | 15.5 | 54.8 | 85.2 | 8170 | – |
| CC(=O)N1N=C(c2ccc(C)cc2)CC1c1ccc(OS(N)(=O)=O)cc1 (configuration not stated) | 22.4 | 9.9 | 7.7 | 2340 | – |
| CC(=O)N1N=C(c2ccc(OS(N)(=O)=O)cc2)CC1c1c(Cl)cccc1Cl (configuration not stated) | 33.4 | 13.2 | 43.7 | 4080 | – |
| CC(=O)N1N=C(c2cccc(OS(N)(=O)=O)c2)CC1c1ccccc1 (configuration not stated) | 29.9 | 39.4 | 55.1 | 188 | – |
| CC(=O)N1N=C(c2ccc(OS(N)(=O)=O)cc2)CC1c1ccccc1Cl (configuration not stated) | 25.9 | 9 | – | 8250 | – |
| CC(=O)N1N=C(c2cccc(OS(N)(=O)=O)c2)CC1c1cccc(Cl)c1 (configuration not stated) | 7.3 | 56.9 | 44.6 | 805 | – |
| CC(=O)N1N=C(c2ccc(OS(N)(=O)=O)cc2)CC1c1cccc(Cl)c1 (configuration not stated) | 0.72 | 0.87 | 9.8 | 2310 | – |
| CC(=O)N1N=C(c2ccc(OS(N)(=O)=O)cc2)CC1c1ccc([N+](=O)[O-])cc1 (configuration not stated) | 74.3 | 1.2 | – | 3210 | – |
| CC(=O)N1N=C(c2ccc(C)cc2)CC1c1cccc(OS(N)(=O)=O)c1 (configuration not stated) | 8.9 | 25.4 | 49.8 | 1540 | – |
| COc1ccc(C2=NN(C(C)=O)C(c3ccc(OS(N)(=O)=O)cc3)C2)cc1 (configuration not stated) | 22.8 | 0.42 | 9.5 | 2980 | – |
| CC(=O)N1N=C(c2cccc(OS(N)(=O)=O)c2)CC1c1ccc(C(F)(F)F)cc1 (configuration not stated) | 3.7 | 22.2 | 8.9 | 952 | – |

From ChEMBL document CHEMBL4359908, “Structure-activity relationship with pyrazoline-based aromatic sulfamates as carbonic anhydrase isoforms I, II, IX and XII inhibitors: Synthesis and biological evaluation” (Eur J Med Chem, 2019)
